This is an account of results in patent US5082942A, “Novel derivatives of tetrahydro-2,3,6,7,1H,5H,11H-(1)benzopyrano(6,7,8,ij)quinolizinone-11 usable as markers of organic compounds for the detection of said compounds by chemiluminescence or fluorescence” (Laboratories Eurobio, priority 1988, dated 1992).

In brackets after ≈: the same amount, converted by molar mass.

Series [1] is described as follows: Solubility in organic solvents. It is filed as physicochemical. The conditions noted are these: organic solvent or mixture; in tetrahydrofuran, acetone or methanol.
Series [2] in a line: Stability of a solution in tetrahydrofuran (high pressure liquid chromatography and fluorimetric detection). The series is classed as physicochemical. The conditions noted are these: 2.10^-3 mole/l in tetrahydrofuran. The source says:
The stability of a 2.10^-3 mole/l solution of luminarine-1 in tetrahydrofuran was studied by high pressure liquid chromatography and fluorimetric detection.

Series [3] is described as follows: Chemiluminescence measurements. The series is classed as physicochemical. The conditions noted are these: for RC, quantum efficiency of chemiluminescence: 10^-3 mole/l coumarin solution; for RE, excitation efficiency: RC = Rex × RF.
Series [4] can be described thus: Fluorescence and absorbance measurements. The series is classed as physicochemical. The conditions noted are these: for ε, molecular extinction coefficient: 365 nm; for S, fluorescence sensitivity: Table 2; for RF, quantum efficiency of fluorescence: acetone and ethylacetate 75:25, 10^-6 mole/l, 20°C, relative to quinine disulphate.
For series [5] the following is noted: 2 mg/l in 0.1 N H2SO4; Parker method; cited from earlier work.
The mark [6] stands for this setting: TCPO and H2O2, (C102) 1.4 × 10^-3.
Setting [7] is: TCPO and H2O2, (C102) 1.4 × 10^-6.
Where [8] appears, read: TCPO and H2O2, (C102) 1.4 × 10^-7.
[9] abbreviates: TCPO and H2O2, (C102) 1.4 × 10^-8.
[10] abbreviates: TCPO and H2O2, (C102) 1.4 × 10^-9.

As a reminder, the solubility is the concentration that dissolves in the medium under given conditions. In the case of `O=C(Cc1cc(=O)oc2c3c4c(cc12)CCCN4CCC3)ON1C(=O)CCC1=O` [luminarine-1, tetrahydro-2,3,6,7,1H,5H, 11H(1)-benzo-pyrano(6,7,8-ij) succinimidoxycarbonylmethyl-9 quinolizinone-11], the solubility in series [1] is approximately 1000 µg/mL (≈ 2520 µM). For the same compound, the “stability of solution at ambient temperature” value in series [2] (ambient temperature, hydrolysis to acid (VIII)) was “deteriorates significantly in a few hours at ambient temperature”. Further, in series [2] (frozen), the “stability of frozen solution” value is listed as “at least two months without any apparent deterioration”.

For the compound `CCN(CC)c1ccc2c(C)cc(=O)oc2c1` [COUMARIN-1, dimethylamino-7 methyl-4 coumarin], in series [3] (DNPO and H2O2), the “RC, quantum efficiency of chemiluminescence” value (from here on “RC, quantum efficiency”) is on record as 0.18 10^2 E · mole^-1 and the “RE, excitation efficiency” value was 0.33 10^-2. For the same compound, in series [3] (TCPO and H2O2, pH 7.5), the “RC, quantum efficiency” value is listed as 0.37 10^2 E · mole^-1 and the RE, excitation efficiency is 0.0067. Further, in series [4], the “ε, molecular extinction coefficient” value is 38 000; the “S, fluorescence sensitivity” value is listed as 57 10^3; the “RF, quantum efficiency of fluorescence” value amounted to 0.55.

`Cc1cc(=O)oc2cc(N(C)C)ccc12` [COUMARIN-311, dimethylamino-7 methyl-4 coumarin]: in series [3] (DNPO and H2O2), the “RC, quantum efficiency” value is 0.13 10^2 E · mole^-1 and the “RE, excitation efficiency” value is 0.24 10^-2. In series [3] (TCPO and H2O2, pH 7.5), the “RC, quantum efficiency” value is listed as 0.17 10^2 E · mole^-1 and the RE, excitation efficiency amounted to 0.0032. Besides, in series [4], the ε, molecular extinction coefficient was 26900 M⁻¹ cm⁻¹; the “S, fluorescence sensitivity” value was 40 10^3; the “RF, quantum efficiency of fluorescence” value came to 0.52.

On to `C=C[C@H]1CN2CC[C@H]1C[C@H]2[C@H](O)c1ccnc2ccc(OC)cc12` [quinine disulphate], for which the “quantum efficiency of fluorescence (reference)” value in series [5] was 0.546.

For `Cc1cc(=O)oc2c3c4c(cc12)CCCN4CCC3` [COUMARIN-102, tetrahydro-2,3,5,6,7,1H,5H,11H-(1)-benzopyrano (6,7,8-ij) methyl-9 quinolizinone-11], the “RC, quantum efficiency” value in series [3] (DNPO and H2O2) is 0.26 10^2 E · mole^-1; in series [3] (TCPO and H2O2, pH 7.5) it was 0.37 10^2 E · mole^-1. Moreover, the “RE, excitation efficiency” value in series [3] (DNPO and H2O2) was 0.45 10^-2; in series [3] (TCPO and H2O2, pH 7.5), 0.0065. Also, the “chemiluminescence efficiency RC as a function of concentration” value in series [3] (TCPO and H2O2) is given as “increases with the coumarin 102 concentration”. Moreover, the “Imax, maximum intensity” value in series [3] (setting [6]) was found to be 301 A.U; in series [3] (setting [7]) it was 75 A.U; in series [3] (setting [8]), 31 A.U; in series [3] (setting [9]) it was 3.2 A.U; in series [3] (setting [10]), 0.3 A.U; in series [3] (pH 4), 24 A.U. Also, the “Imax, maximum intensity” value in series [3] (pH 5) is reported as 17 A.U; in series [3] (pH 6), 25 A.U; in series [3] (pH 7) it was 110 A.U; in series [3] (pH 8), 245 A.U. Also, the “RC, chemiluminescence efficiency” value is reported as 12.0 10^4 E · mol^-1 in series [3] (setting [6]); 4.14 10^4 E · mol^-1 in series [3] (setting [7]); 2.31 10^4 E · mol^-1 in series [3] (setting [8]); 0.40 10^4 E · mol^-1 in series [3] (setting [9]); 0.20 10^4 E · mol^-1 in series [3] (setting [10]); 1.52 10^4 E · mol^-1 in series [3] (pH 4). Besides, the “RC, chemiluminescence efficiency” value in series [3] (pH 5) was 1.58 10^4 E · mol^-1; in series [3] (pH 6), 2.34 10^4 E · mol^-1; in series [3] (pH 7), 2.23 10^4 E · mol^-1; in series [3] (pH 8), 1.60 10^4 E · mol^-1. Moreover, the “T1/2, time for reaching half the maximum intensity after the maximum time” value turned out to be 6 s in series [3] (setting [6]); 9 s in series [3] (setting [7]); 7.2 s in series [3] (setting [8]); 6 s in series [3] (setting [9]); 4.8 s in series [3] (setting [10]); 300 s in series [3] (pH 4). Moreover, the “T1/2, time for reaching half the maximum intensity after the maximum time” value in series [3] (pH 5) came out at 360 s; in series [3] (pH 6) it was 336 s; in series [3] (pH 7), 108 s; in series [3] (pH 8), 24 s. In addition, the “Tmax, time for reaching the maximum intensity” value in series [3] (setting [6]) amounted to 12 s; in series [3] (setting [7]) it was 12 s; in series [3] (setting [8]), 12 s; in series [3] (setting [9]), 12 s; in series [3] (setting [10]), 12 s; in series [3] (pH 4), 48 s. The “Tmax, time for reaching the maximum intensity” value in series [3] (pH 5) was 60 s; in series [3] (pH 6), 48 s; in series [3] (pH 7) it was 24 s; in series [3] (pH 8), 12 s. In addition, the “chemiluminescence efficiency as a function of pH” value in series [3] (pH 4 to 8) was “rises up to pH6 and then falls”. Also, the “maximum intensity as a function of pH” value in series [3] (pH 4 to 8) is listed as “increases significantly with the pH”. In addition, the “Tmax and T1/2 as a function of pH” value in series [3] (pH beyond 5) is on record as “decrease when the pH increases beyond 5”. In series [4], the ε, molecular extinction coefficient turned out to be 23000 M⁻¹ cm⁻¹. In series [4], the “S, fluorescence sensitivity” value was 36 10^3. Also, the “comparison of fluorescence, absorbance and chemiluminescence properties” value in series [4] (Tables 2 and 3, versus coumarin-1 and coumarin-311) was “has the best fluorescence, absorbance and chemiluminescence properties”. Besides, in series [4], the “RF, quantum efficiency of fluorescence” value worked out at 0.57.
